{"source": "paper PMC5848173", "about": "“PhcrTx2, a New Crab-Paralyzing Peptide Toxin from the Sea Anemone Phymanthus crucifer” (Toxins, 2018)", "key": {"[1]": {"conditions": "Anthopleura elegantissima toxins; ref [5],[38]; cited from earlier work", "description": "(§1) The inhibition of PhcrTx2 on glutamate-gated currents in snail neurons, and also on voltage-activated K^+ currents in DRG neurons, seems to be of about similar potency and slightly different in efficacy. PhcrTx2 also acted on voltage-dependent Na^+-channels of DRG neurons but with lower efficacy, in comparison with its effect on K^+ channels. […] These facts resemble previous re ..."}, "[2]": {"tested_on": "ASIC3", "conditions": "ref [38], cited from earlier work", "description": "as §1"}, "[3]": {"tested_on": "Kv3.4 channels", "conditions": "ref [38],[58]; cited from earlier work", "description": "as §1"}, "[4]": {"tested_on": "heteromeric channels that contain the ASIC3 subunit", "conditions": "except the ASIC2a + 3 current; ref [38]; cited from earlier work", "description": "as §1"}, "[5]": {"tested_on": "insect and mammalian Nav channels", "conditions": "ref [38],[58]; cited from earlier work", "description": "as §1"}, "[6]": {"tested_on": "glutamate-gated currents in snail neurons", "experiment": "Glutamate-gated currents in isolated snail neurons (whole-cell patch clamp)", "format": "cell-based, Helix aspersa", "conditions": "glutamate 1 mM", "method": "The effects of PhcrTx2 were studied in isolated mammalian and snail neurons using the whole cell patch-clamp technique. Animal care and procedures were in accordance with the National Institutes of Health Guide for the Care and Use of Laboratory Animals. All efforts were made to minimize animal suffering. The number of animals used for this work was kept to the minimum necessary for a meaningful interpretation of the data.\nExperiments to study glutamate-activated currents were performed in isolated neurons of the land snail Helix aspersa. The subesophageal mass of the snail was dissected, and put into the Ringer solution for snails (Supplementary Table S4) containing trypsin (2 mg/mL for 30 min, at 37 °C). After enzymatic treatment, the preparation was washed with normal solution for snails, and the neurons were mechanically dissociated, plated on glass coverslips (Corning) pretreated with poly-D-lysine (Sigma-Aldrich), and placed onto 35-mm culture dishes (Corning). Neurons were maintained at room temperature (23–25 °C) for at least 30 min before using, in order to allow the isolated cells to adhere to the coverslips. The whole-cell recording was carried out using the same experimental conditions that were described in Section 5.2.2.\nGlutamate currents were elicited by a fast glutamate application (about 40 ms) by shifting one of the three outlets of a fast change perfusion system (SF-77B, Warner Inst., Hamden, CT, USA) while keeping the cell at a holding potential (Vh) of −100 mV. The interval between glutamate applications was one minute, to guarantee that the current completely recovered from desensitization. The pH of glutamate solution was checked before each experiment to avoid the potential activation of proton-gated currents. At the beginning of this study, experiments were designed to compare the effect of the toxin using two application protocols.\nThe solutions used in the experiments are depicted in Supplementary Table S4. The concentration-response curves were fitted to the Hill equation following the procedure described in Section 5.2.2."}, "[7]": {"tested_on": "crabs", "conditions": "Antheopsis maculata toxin; ref [21]; cited from earlier work", "description": "Many of these peptides have been classified as voltage-gated sodium channel toxins, whereas few other crab-paralyzing peptides act on different targets, such as voltage-gated potassium channels. On the other hand, other paralyzing toxins seem to belong to new classes of toxins. In this work, we found a diversity of paralyzing toxins from the sea anemone P. crucifer by using a crab toxicity assay for biological activity screening during the purification process. Sixteen chromatographic fractions sh ... || (+ 1 further places)"}}, "note": "No end group written: not given here."}
{"compound": "APETx2: toxin from Anthopleura elegantissima, ASIC3 blocker (UniProtKB P61542) (GTACSCGNSKGIYWFYRPSCPTDRGYTGSCRYFLGTCCTPAD; UniProt P61542 1-42, looked up)", "values": [{"measurement": "target selectivity", "setting": "[1]", "result": "lack of target selectivity"}, {"measurement": "IC50", "setting": "[2]; reversible blocker, read-out: IC50, peak component of the ASIC3 current", "result": 63, "unit": "nM"}, {"measurement": "effect on the sustained component of ASIC3 current", "setting": "[2]; sustained component", "result": "no effect"}, {"measurement": "inhibition of Kv3.4 channels", "setting": "[3]", "result": "partially inhibits Kv3.4 channels"}, {"measurement": "effect on heteromeric channels containing ASIC3", "setting": "[4]", "result": "affects heteromeric channels that contain the ASIC3 subunit, except the ASIC2a + 3 current"}, {"measurement": "effect on Nav channels", "setting": "[5]", "result": "inhibiting the sodium conductance without affecting the inactivation and shifting activation to a depolarizing direction"}]}
{"compound": "APETx1: toxin from Anthopleura elegantissima (UniProtKB P61541) (GTTCYCGKTIGIYWFGTKTCPSNRGYTGSCGYFLGICCYPVD; UniProt P61541 1-42, looked up)", "values": [{"measurement": "target selectivity", "setting": "[1]", "result": "lack of target selectivity"}]}
{"compound": "N[C@@H](CCC(=O)O)C(=O)O", "note": "[glutamate]", "values": [{"measurement": "glutamate-evoked current at positive potential", "setting": "[6]; 80 mV, n = 5", "result": "0.3 ± 0.1", "unit": "nA"}, {"measurement": "glutamate-evoked current", "setting": "[6]; holding potential −100 mV, n = 5, average", "result": "about 2.6 ± 1.4 nA"}, {"measurement": "reversal potential of glutamate-evoked current", "setting": "[6]; average, \"close to\"", "result": "~0", "unit": "mV"}]}
{"compound": "Am II: crab-paralyzing toxin from Antheopsis maculata (UniProtKB P69930) (ALLSCRCEGKTEYGDKWLFHGGCPNNYGYNYKCFMKPGAVCCYPQN; ends and bridges not checked; cysteine pairing not given here; UniProt P69930 33-78, looked up)", "values": [{"measurement": "crab-paralyzing activity", "setting": "[7]", "result": "crab-paralyzing toxin"}]}
